{"source": "paper PMC11558673", "about": "“Exploring LCST- and UCST-like Behavior of Branched Molecules Bearing Repeat Units of Elastin-like Peptides as Side Components” (Biomacromolecules, 2024)", "origin": "cited, not measured here", "details": "monomeric pentapeptide; cited from earlier work", "description": "Short ELPs with a (VPGVG)n sequence ..."}
{"substance": "H-FPGVG-NH2 [F1, monomeric elastin-like pentapeptide Phe-Pro-Gly-Val-Gly amide]", "values": [{"measurement": "Coacervation (LCST-like behavior)", "result": "did not show coacervation"}]}
